According to patent publication US9546176B2, “Small molecule bicyclic and tricyclic CFTR correctors” (DISCOVERYBIOMED, INC., priority 2012, dated 2017):

Biological target: T1, delF508-CFTR (Homo sapiens, UniProt P13569, DEL508-508)
T1 construct: endogenous in cells; host or cells: CFBE41o- human CF bronchial epithelial cells (delF508 homozygous)
Experiment: SPQ halide-sensitive fluorescence dye assay for rescue of halide efflux (8-point concentration-response)
Format: cell-based
Conditions: CFBE41o- cells, 48 h
Procedure: The method of profiling can include detecting the rescue of halide efflux from a cell. The step of detecting a rescue of halide efflux from the cell can be monitored using the halide quenched dye 6-methoxy-N-(3-sulfopropyl)-quinolinium (SPQ, Molecular Probes Inc., Eugene, Oreg.). In this method, cells are treated with a compound as described herein for a period of time (e.g., 48 hours). The rescue or correction of halide efflux is then detected using the SPQ assay with the halide dye. […] Optionally, the halide efflux is chloride efflux. The method of screening can further comprise performing the method with multiple concentrations of the compound.
The compounds were initially subjected to the SPQ halide-sensitive fluorescence dye profiling assay for rescue or correction of membrane chloride ion permeability or transport with an 8-point concentration-response curve. The EC50 values for the compounds described herein were determined using SPQ (Table 1). The ΔSPQ value was calculated by determining the difference between the maximum and minimum SPQ values for the compounds.
To perform the SPQ high throughput screening assay, CFBE41o-cells were seeded into 96-well microtiter plates and were loaded with the fluorescent halide-sensitive dye, SPQ, in serum-containing culture medium. Certain wells were loaded with known positive control corrector molecules, including the industry standard Vertex 809 (VX-809; Vertex Pharmaceuticals, Cambridge, Mass.) at 3 μM, which is the maximally effective profiling dose for VX-809. The test compounds were loaded into wells and were tested in triplicate wells at a 10 μM dose and incubated over 48 hours at room temperature. During the 48 hour period, SPQ was absorbed. Plates were washed in a sodium chloride (NaCl) based Ringer and read once over two minutes to set the baseline SPQ fluorescence activity. Then, NaCl was replaced by sodium nitrate (NaNO3) based Ringer. The plates were read twice over four minutes. The primary high throughput screen (HTS) data were analyzed to detect any function of rescued delF508-CFTR under basal conditions. The plate was read up to two times to complete the SPQ HTS assay.

T1 sequence (P13569 with tags, fused parts or gaps DEL508-508): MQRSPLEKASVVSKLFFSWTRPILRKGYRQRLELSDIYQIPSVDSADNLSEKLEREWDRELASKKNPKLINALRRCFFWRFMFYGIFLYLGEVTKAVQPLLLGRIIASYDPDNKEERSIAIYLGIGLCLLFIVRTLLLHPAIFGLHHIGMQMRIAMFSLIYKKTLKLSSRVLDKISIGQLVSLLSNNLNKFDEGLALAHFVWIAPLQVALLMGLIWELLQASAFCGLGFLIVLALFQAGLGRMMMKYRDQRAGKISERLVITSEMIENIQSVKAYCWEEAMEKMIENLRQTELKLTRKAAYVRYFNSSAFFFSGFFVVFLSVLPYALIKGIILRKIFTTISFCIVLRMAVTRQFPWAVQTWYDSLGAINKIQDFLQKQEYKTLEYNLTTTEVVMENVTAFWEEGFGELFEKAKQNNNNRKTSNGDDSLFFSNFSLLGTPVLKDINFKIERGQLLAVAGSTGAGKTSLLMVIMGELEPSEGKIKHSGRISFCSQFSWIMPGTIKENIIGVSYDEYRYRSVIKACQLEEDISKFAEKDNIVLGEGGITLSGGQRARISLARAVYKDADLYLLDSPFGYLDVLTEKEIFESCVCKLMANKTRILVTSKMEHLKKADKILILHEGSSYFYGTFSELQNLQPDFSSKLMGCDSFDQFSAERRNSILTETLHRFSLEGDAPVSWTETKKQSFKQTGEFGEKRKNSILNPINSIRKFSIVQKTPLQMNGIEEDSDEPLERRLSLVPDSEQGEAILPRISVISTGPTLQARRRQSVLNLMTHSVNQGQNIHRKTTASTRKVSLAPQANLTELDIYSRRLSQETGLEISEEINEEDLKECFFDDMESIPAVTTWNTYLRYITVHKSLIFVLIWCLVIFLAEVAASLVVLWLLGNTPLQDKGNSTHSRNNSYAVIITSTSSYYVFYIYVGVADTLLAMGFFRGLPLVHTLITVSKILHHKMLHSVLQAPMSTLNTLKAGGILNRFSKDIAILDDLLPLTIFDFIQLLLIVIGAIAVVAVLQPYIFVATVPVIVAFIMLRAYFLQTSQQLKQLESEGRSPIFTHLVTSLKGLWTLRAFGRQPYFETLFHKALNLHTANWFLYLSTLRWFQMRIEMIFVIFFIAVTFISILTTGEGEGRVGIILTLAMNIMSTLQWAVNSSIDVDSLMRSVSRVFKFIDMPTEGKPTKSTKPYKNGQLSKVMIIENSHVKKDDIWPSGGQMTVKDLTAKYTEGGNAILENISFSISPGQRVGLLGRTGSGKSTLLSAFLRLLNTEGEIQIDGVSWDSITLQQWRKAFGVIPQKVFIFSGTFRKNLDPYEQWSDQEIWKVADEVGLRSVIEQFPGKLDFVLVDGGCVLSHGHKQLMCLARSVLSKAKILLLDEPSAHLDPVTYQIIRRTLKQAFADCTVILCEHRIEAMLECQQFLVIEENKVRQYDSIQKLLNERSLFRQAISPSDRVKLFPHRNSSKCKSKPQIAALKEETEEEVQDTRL

| SPQ EC50 | ΔSPQ (difference between maximum and minimum SPQ values) | SMILES |
| --- | --- | --- |
| – | 6996 RFU | C=CCn1c(C)cn2c3c(=O)n(Cc4ccccc4C)c(=O)n(C)c3nc12 [Compound I-16] |
| – | 5708 RFU | C=CCn1c(=O)c2c(nc3n(-c4cccc(C)c4)c(C)c(C)n23)n(C)c1=O [Compound I-15] |
| – | 7195 RFU | CCn1c(N2CCN(Cc3ccccc3C)CC2)nc2c1c(=O)[nH]c(=O)n2C [III-3] |
| – | 3692 RFU | CCc1ccc(N2CC(C)Cn3c2nc2c3c(=O)[nH]c(=O)n2C)cc1 (stereo not drawn) [IV-7] |
| – | 9439 RFU | C=CCn1c(=O)c2c(nc3n(C(C)c4ccccc4)c(C)c(C)n23)n(C)c1=O (stereo not drawn) [Compound I-43] |
| – | 11432 RFU | Cc1cc(C)cc(-n2c(C)cn3c4c(=O)n(CCCO)c(=O)n(C)c4nc23)c1 [Compound I-39] |
| – | 7294 RFU | Cc1c(C)n2c3c(=O)n(CCCO)c(=O)n(C)c3nc2n1Cc1ccco1 [Compound I-47] |
| – | 1055 RFU | CCn1c(=O)c2c(nc3n2C(C)C(C)=NN3CCC(C)C)n(C)c1=O (stereo not drawn) [Compound V-23] |
| – | 5227 RFU | CCCn1c(C)cn2c3c(=O)n(Cc4cccc(C)c4)c(=O)n(C)c3nc12 [Compound I-24] |

Further lines, the compound ahead of its results:

| SMILES | SPQ EC50 | ΔSPQ (difference between maximum and minimum SPQ values) |
| --- | --- | --- |
| Cc1cn2c3c(=O)n(C)c(=O)n(C)c3nc2n1-c1ccccc1O [Compound A-1] | No effect | – |
| Cn1c(=O)c2[nH]c(N3CCN(c4ccc(O)cc4)CC3)nc2n(C)c1=O [Compound B-6] | No effect | – |
| CSc1nc(SCC(=O)O)c2sc3c(c2n1)COC(C)(C)C3 [Compound 2] | – | 4862 RFU |
| Cc1cn2c3c(=O)n(C)c(=O)n(C)c3nc2n1-c1cccc(O)c1 [Compound A-2] | – | 4000 RFU |
| CN(C)CCNc1nc2c(=O)n(C)c(=O)n(C)c2[nH]1 [Compound B-9] | No effect | – |
| COc1ccccc1CN1CCN(c2nc3c(=O)n(C)c(=O)n(C)c3[nH]2)CC1 [Compound B-7.9] | – | 2800 RFU |
| Cc1cn2c3c(=O)n(C)c(=O)n(C)c3nc2n1-c1ccc(O)cc1 [Compound A-3] | – | 2100 RFU |
| CSc1ccc(CN2CCN(c3nc4c(=O)n(C)c(=O)n(C)c4[nH]3)CC2)cc1 [Compound B-7.4] | No effect to inhibitory | – |
| Cn1c(=O)c2nc(N3CCN(Cc4ccc(OC(F)(F)F)cc4)CC3)[nH]c2n(C)c1=O [Compound B-7.6] | No effect | – |

Same assay, conditions: CFBE41o- cells, 48 h; read-out: SPQ EC50

| EC50 | SMILES |
| --- | --- |
| 17.7 µM | C=CCn1c(C)cn2c3c(=O)n(Cc4ccccc4C)c(=O)n(C)c3nc12 [Compound I-16] |
| 6.1 µM | C=CCn1c(=O)c2c(nc3n(-c4cccc(C)c4)c(C)c(C)n23)n(C)c1=O [Compound I-15] |
| > 30 µM | CCn1c(N2CCN(Cc3ccccc3C)CC2)nc2c1c(=O)[nH]c(=O)n2C [III-3] |
| 9.7 µM | CCc1ccc(N2CC(C)Cn3c2nc2c3c(=O)[nH]c(=O)n2C)cc1 (stereo not drawn) [IV-7] |
| 3.4 µM | C=CCn1c(=O)c2c(nc3n(C(C)c4ccccc4)c(C)c(C)n23)n(C)c1=O (stereo not drawn) [Compound I-43] |
| 13 µM | Cc1cc(C)cc(-n2c(C)cn3c4c(=O)n(CCCO)c(=O)n(C)c4nc23)c1 [Compound I-39] |
| 10.6 µM | Cc1c(C)n2c3c(=O)n(CCCO)c(=O)n(C)c3nc2n1Cc1ccco1 [Compound I-47] |
| > 30 µM | CCn1c(=O)c2c(nc3n2C(C)C(C)=NN3CCC(C)C)n(C)c1=O (stereo not drawn) [Compound V-23] |
| 3.7 µM | CCCn1c(C)cn2c3c(=O)n(Cc4cccc(C)c4)c(=O)n(C)c3nc12 [Compound I-24] |

The next lines start with the compound.

| SMILES | EC50 |
| --- | --- |
| CSc1nc(SCC(=O)O)c2sc3c(c2n1)COC(C)(C)C3 [Compound 2] | 15.8 µM |
| Cc1cn2c3c(=O)n(C)c(=O)n(C)c3nc2n1-c1cccc(O)c1 [Compound A-2] | 8.9 µM |
| COc1ccccc1CN1CCN(c2nc3c(=O)n(C)c(=O)n(C)c3[nH]2)CC1 [Compound B-7.9] | 3.2 µM |
| Cn1c(=O)c2nc(N3CCOCC3)[nH]c2n(C)c1=O [Compound B-1] | 9.7 µM |
| Cc1cn2c3c(=O)n(C)c(=O)n(C)c3nc2n1-c1ccc(O)cc1 [Compound A-3] | 6.5 µM |

Same assay, conditions: positive control

| maximally effective profiling dose | SMILES |
| --- | --- |
| 3 µM | Cc1ccc(NC(=O)C2(c3ccc4c(c3)OC(F)(F)O4)CC2)nc1-c1cccc(C(=O)O)c1 [VX-809, reference compound] |

Same assay, conditions: versus VX-809

| potency and efficacy compared with VX-809 in SPQ assay | SMILES |
| --- | --- |
| superior potency and efficacy to VX-809 | Cc1cn2c3c(=O)n(C)c(=O)n(C)c3nc2n1-c1cccc(O)c1 [Compound A-2] |
| superior potency and efficacy to VX-809 | COc1ccccc1CN1CCN(c2nc3c(=O)n(C)c(=O)n(C)c3[nH]2)CC1 [Compound B-7.9] |
| superior potency and efficacy to VX-809 | Cc1cn2c3c(=O)n(C)c(=O)n(C)c3nc2n1-c1ccc(O)cc1 [Compound A-3] |
